This note sets out measurements from patent US4637997A, “Hexapeptide, process for obtaining II and the pharmaceutical compositions containing II” (Institut National de la Sante et de la Recherche Medicale, priority 1984, dated 1987).

Peptide text beside a SMILES is read from it.

The test system of the assay is Klebsiella pneumoniae. The experiment in a line: experimental infection with Klebsiella pneumoniae in the mouse. It is filed as in vivo. As to conditions: i.v.

With `CC[C@H](C)[C@H](NC(=O)[C@@H]1CCCN1C(=O)[C@H](CCC(=O)O)NC(=O)[C@@H](N)C(C)C)C(=O)N1CCC[C@H]1C(=O)N[C@@H](Cc1ccc(O)cc1)C(=O)O` [hexapeptide of formula (I), Val-Glu-Pro-Ile-Pro-Tyr] (H-VEPIPY-OH), the “dose from which remarkable activity against experimental infection is exhibited” value is at least 0.05 mg/kg.
